Measured values as given in EPA's ToxRefDB 2.

What was measured:
rat [1] = conditions: Subchronic oral toxicity in rodents, sprague dawley, Feed, dose end: 13 week, group: systemic
rat [2] = conditions: Combined chronic toxicity/carcinogenicity, sprague dawley, Oral, Feed, dose end: 105 week, group: systemic
rat [3] = conditions: Chronic toxicity, Oral, Diet, dose end: 53 week, group: systemic
dog [4] = conditions: Subchronic oral toxicity in nonrodent, beagle, Gavage/Intubation, dose end: 14 week, group: systemic
dog [5] = conditions: Chronic toxicity; beagle; Oral; Gavage/Intubation; dose end: 53 week; group: systemic; systemic / in life observation / clinical signs / stiffness + systemic / in life observation / clinical signs / tremors + systemic / …
rat [6] = conditions: Multigenerational reproductive toxicity study, Sprague-Dawley, Oral, Feed, dose end: 2 generation
rat [7] = conditions: Prenatal developmental toxicity study, sprague dawley, Oral, Gavage/Intubation, dose end: 18 GD
rat [8] = conditions: Prenatal developmental toxicity study, wistar, Oral, Gavage/Intubation, dose end: 15 GD
rat [9] = conditions: Combined chronic toxicity/carcinogenicity, sprague dawley, Oral, Feed, dose end: 24 month, group: systemic
rat [10] = conditions: Prenatal developmental toxicity study, sprague dawley, Oral, Gavage/Intubation, dose end: 15 GD
rat [11] = conditions: Multigenerational reproductive toxicity study, sprague dawley, Oral, Feed, dose end: 2 generation
dog [12] = conditions: Chronic toxicity; beagle; Oral; Feed; dose end: 52 week; group: systemic; systemic / organ weight / kidney / absolute + systemic / organ weight / kidney / relative to body weight + systemic / pathology microscopic…
rat [13] = conditions: Subchronic oral toxicity in rodents, sprague dawley, Feed, dose end: 90 day, group: systemic
mouse = conditions: Subchronic oral toxicity in rodents, cd1, Feed, dose end: 13 week, group: systemic
[14] = systemic / in life observation / body weight / body weight + systemic / in life observation / clinical signs / emaciation + systemic / in …
[15] = systemic / in life observation / body weight / body weight + systemic / in life observation / body weight / body weight gain + systemic / in…
[16] = systemic / in life observation / clinical signs / locomotion + systemic / in life observation / clinical signs / motor activity + systemic…
[17] = systemic / pathology microscopic / brain / degeneration + systemic / pathology microscopic / skeletal muscle / atrophy + systemic / in life …
[18] = systemic / pathology microscopic / brain / degeneration + systemic / pathology microscopic / skeletal muscle / atrophy + systemic / …
[19] = group: maternal, systemic / in life observation / body weight / body weight gain
[20] = group: offspring, developmental / developmental malformation / limb / [other] + systemic / in life observation / clinical signs / tremors
[21] = group: parental, systemic / pathology microscopic / brain / degeneration + systemic / pathology microscopic / spinal cord / degeneration + systemic / in life…
[22] = group: reproductive, reproductive / reproductive performance / fertility / fertility
[23] = group: developmental, developmental / developmental malformation / bone / full supernumerary + developmental / developmental malformation / bone / incomplete …
[24] = group: maternal, systemic / in life observation / body weight / body weight gain + systemic / in life observation / clinical signs / convulsions + systemic…
[25] = group: developmental, systemic / in life observation / body weight / fetal weight
[26] = group: maternal, systemic / in life observation / body weight / body weight gain + reproductive / reproductive performance / reproductive performance other…
[27] = systemic / organ weight / adrenal gland / nos + systemic / organ weight / pituitary gland / nos + systemic / in life observation / clinical …
[28] = group: developmental, developmental / developmental malformation / bone / full supernumerary + developmental / developmental malformation / general / crown-rump …
[29] = group: maternal, systemic / in life observation / body weight / body weight gain + systemic / in life observation / clinical signs / body surface staining + …
[30] = group: parental, systemic / organ weight / liver / absolute + systemic / organ weight / liver / relative to body weight + systemic / pathology microscopic / …
[31] = group: reproductive, reproductive / reproductive performance / gestational length / gestational length
[32] = systemic / clinical chemistry / calcium / calcium
[33] = systemic / clinical chemistry / alanine aminotransferase (alt/sgpt) / alanine aminotransferase (alt/sgpt) + systemic / clinical chemistry / …

CC[C@H](C)[C@H]1O[C@]2(C=C[C@@H]1C)C[C@@H]1C[C@@H](C/C=C(\C)[C@@H](O[C@H]3C[C@H](OC)[C@@H](O[C@H]4C[C@H](OC)[C@@H](NC)[C@H](C)O4)[C@H](C)O3)[C@@H](C)/C=C/C=C3\CO[C@@H]4[C@H](O)C(C)=C[C@@H](C(=O)O1)[C@]34O)O2.O=C(O)c1ccccc1 [Emamectin benzoate]
LOAEL (rat [1]; [14]): 6.7 mg/kg/day | NOAEL (rat [1]; [14]): 2.5 mg/kg/day | LEL (rat [1]; systemic / pathology microscopic / eye / vacuolization): 2.5 mg/kg/day | NEL (rat [1]; systemic / pathology microscopic / eye / vacuolization + systemic / in life observation / body weight / body weight + systemic / in life …): 0.5 mg/kg/day | NEL (rat [2]; systemic / clinical chemistry / triglycerides / triglycerides + systemic / in life observation / body weight / body weight + systemic / …): 0.25 mg/kg/day | LOAEL (rat [2]; [15]): 2.51 mg/kg/day | NOAEL (rat [2]; [15]): 1.01 mg/kg/day | LEL (rat [2]; systemic / pathology microscopic / skin / fibroma + systemic / pathology gross / skin / nodule(s) + systemic / clinical chemistry / …): 1.01 mg/kg/day | NEL (rat [3]; systemic / in life observation / body weight / body weight + systemic / in life observation / clinical signs / fur (altered appearance) + …): 1 mg/kg/day | LEL (rat [3]; [16]): 2.5 mg/kg/day | LOAEL (rat [3]; [16]): 2.5 mg/kg/day | NOAEL (rat [3]; [16]): 1 mg/kg/day | NEL (dog [4]; [17]): 0.25 mg/kg/day | NOAEL (dog [4]; [17]): 0.25 mg/kg/day | LEL (dog [4]; [18]): 0.5 mg/kg/day | LOAEL (dog [4]; [18]): 0.5 mg/kg/day | LEL (dog [5]): 0.5 mg/kg/day | LOAEL (dog [5]): 0.5 mg/kg/day | NEL (dog [5]): 0.25 mg/kg/day | NOAEL (dog [5]): 0.25 mg/kg/day | LEL (rat [6]; [19]): 1.8 mg/kg/day | LOAEL (rat [6]; [19]): 1.8 mg/kg/day | NEL (rat [6]; [19]): 0.6 mg/kg/day | NOAEL (rat [6]; [19]): 0.6 mg/kg/day | LOAEL (rat [6]; [20]): 1.8 mg/kg/day | NEL (rat [6]; [20]): 0.6 mg/kg/day | NOAEL (rat [6]; [20]): 0.6 mg/kg/day | LEL (rat [6]; group: offspring, developmental / developmental malformation / limb / [other] + systemic / in life observation / clinical signs / tremors + systemic / in life…): 1.8 mg/kg/day | LOAEL (rat [6]; group: parental, systemic / pathology microscopic / brain / degeneration + systemic / pathology microscopic / spinal cord / degeneration): 3.6 mg/kg/day | LEL (rat [6]; [21]): 3.6 mg/kg/day | NEL (rat [6]; [21]): 1.8 mg/kg/day | NOAEL (rat [6]; [21]): 1.8 mg/kg/day | LEL (rat [6]; [22]): 3.6 mg/kg/day | LOAEL (rat [6]; [22]): 3.6 mg/kg/day | NEL (rat [6]; [22]): 1.8 mg/kg/day | NOAEL (rat [6]; [22]): 1.8 mg/kg/day | LEL (rat [7]; [23]): 8 mg/kg/day | LOAEL (rat [7]; [23]): 8 mg/kg/day | NEL (rat [7]; [23]): 4 mg/kg/day | NOAEL (rat [7]; [23]): 4 mg/kg/day | LEL (rat [7]; [19]): 4 mg/kg/day | LOAEL (rat [7]; [19]): 4 mg/kg/day | NEL (rat [7]; [24]): 2 mg/kg/day | NOAEL (rat [7]; [24]): 2 mg/kg/day

FC(F)C(F)(F)OCC(Cn1cncn1)c1ccc(Cl)cc1Cl (stereo not drawn) [Tetraconazole]
LEL (rat [8]; [25]): 100 mg/kg/day | LOAEL (rat [8]; [25]): 100 mg/kg/day | NEL (rat [8]; [25]): 30 mg/kg/day | NOAEL (rat [8]; [25]): 30 mg/kg/day | LOAEL (rat [8]; [19]): 100 mg/kg/day | LEL (rat [8]; [26]): 100 mg/kg/day | NEL (rat [8]; [26]): 30 mg/kg/day | NOAEL (rat [8]; [26]): 30 mg/kg/day | LEL (rat [9]; systemic / clinical chemistry / alanine aminotransferase (alt/sgpt) / alanine aminotransferase (alt/sgpt)): 3.4 mg/kg/day | LOAEL (rat [9]; [27]): 27.7 mg/kg/day | NEL (rat [9]; [27]): 0.4 mg/kg/day | NOAEL (rat [9]; [27]): 3.4 mg/kg/day | LEL (rat [10]; [28]): 100 mg/kg/day | LOAEL (rat [10]; [28]): 100 mg/kg/day | NEL (rat [10]; [28]): 22.5 mg/kg/day | NOAEL (rat [10]; [28]): 22.5 mg/kg/day | LEL (rat [10]; [29]): 22.5 mg/kg/day | LOAEL (rat [10]; [29]): > 100 mg/kg/day | NEL (rat [10]; [29]): 5 mg/kg/day | NOAEL (rat [10]; [29]): ≥ 100 mg/kg/day | LOAEL (rat [11]; group: offspring, systemic / in life observation / body weight / offspring (pup) weight + systemic / organ weight / liver / relative to body weight): 35.5 mg/kg/day | NOAEL (rat [11]; group: offspring, systemic / in life observation / body weight / offspring (pup) weight + systemic / organ weight / liver / relative to body weight + systemic…): 4.9 mg/kg/day | LEL (rat [11]; group: offspring, systemic / organ weight / liver / relative to body weight): 5.9 mg/kg/day | NEL (rat [11]; group: offspring, systemic / organ weight / liver / relative to body weight + systemic / in life observation / body weight / offspring (pup) weight + systemic…): 0.8 mg/kg/day | LOAEL (rat [11]; [30]): 35.5 mg/kg/day | NOAEL (rat [11]; [30]): 4.9 mg/kg/day | LEL (rat [11]; group: parental, systemic / organ weight / liver / relative to body weight): 6 mg/kg/day | NEL (rat [11]; group: parental, systemic / organ weight / liver / relative to body weight + systemic / in life observation / body weight / body weight gain + systemic / in …): 0.8 mg/kg/day | LEL (rat [11]; [31]): 5.9 mg/kg/day | LOAEL (rat [11]; [31]): 5.9 mg/kg/day | NEL (rat [11]; [31]): 0.8 mg/kg/day | NOAEL (rat [11]; [31]): 0.8 mg/kg/day | LEL (dog [12]): 2.95 mg/kg/day | LOAEL (dog [12]): 2.95 mg/kg/day | NEL (dog [12]): 0.73 mg/kg/day | NOAEL (dog [12]): 0.73 mg/kg/day | LEL (rat [13]; [32]): 0.7 mg/kg/day | NEL (rat [13]; [32]): < 0.7 mg/kg/day | NOAEL (rat [13]; systemic / clinical chemistry / calcium / calcium + systemic / in life observation / body weight / body weight gain + systemic / organ …): 4.1 mg/kg/day | LOAEL (rat [13]; systemic / in life observation / body weight / body weight gain + systemic / organ weight / liver / relative to body weight + systemic / …): 23.9 mg/kg/day | LOAEL (mouse; [33]): 20 mg/kg/day | NOAEL (mouse; [33]): 4 mg/kg/day | LEL (mouse; systemic / pathology microscopic / liver / hypertrophy + systemic / pathology microscopic / liver / degeneration): 16 mg/kg/day | NEL (mouse; systemic / pathology microscopic / liver / hypertrophy + systemic / pathology microscopic / liver / degeneration + systemic / clinical …): 4 mg/kg/day
